The record followed here is US12577206B2 (BRISTOL-MYERS SQUIBB COMPANY, priority 2020, dated 2026).

The target in assay [1] is T1, human FPR2 (Homo sapiens, UniProt P25090).
T1 sequence (P25090 1-351): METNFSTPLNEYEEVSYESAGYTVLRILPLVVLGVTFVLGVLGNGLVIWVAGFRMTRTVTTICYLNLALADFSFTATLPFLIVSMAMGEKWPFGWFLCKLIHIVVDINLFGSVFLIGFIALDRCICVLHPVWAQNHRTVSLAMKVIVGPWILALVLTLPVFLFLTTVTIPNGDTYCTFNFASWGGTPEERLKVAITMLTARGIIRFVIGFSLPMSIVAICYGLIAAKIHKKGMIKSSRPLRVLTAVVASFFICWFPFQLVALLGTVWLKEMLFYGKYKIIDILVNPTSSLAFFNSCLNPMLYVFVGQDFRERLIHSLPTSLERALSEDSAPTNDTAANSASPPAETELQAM
Put plainly: FPR2 cyclic adenosine monophosphate (cAMP) assay. The class given is cell-based. The note with it: CHO cells overexpressing human FPR2; forskolin 5 μM; inhibition of cAMP production; HTRF; read-out: hFPR2 cAMP2 EC50. An outline of the steps:
(§1)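 CHO cells overexpressing human FPR1 (4,000/well) or FPR2 (2,000/well) were incubated 30 min at room temperature with compound (0.020 nM to 100 μM, 1% DMSO), IBMX 200 μM, and forskolin at 10 μM (FPR1) or 5 μM (FPR2), all final. HTRF cAMP read-out; inhibition fitted by 4-parameter logistic equation.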

In assay [2] the target is T2, human FPR1 (Homo sapiens, UniProt P21462).
T2 sequence (P21462 1-350): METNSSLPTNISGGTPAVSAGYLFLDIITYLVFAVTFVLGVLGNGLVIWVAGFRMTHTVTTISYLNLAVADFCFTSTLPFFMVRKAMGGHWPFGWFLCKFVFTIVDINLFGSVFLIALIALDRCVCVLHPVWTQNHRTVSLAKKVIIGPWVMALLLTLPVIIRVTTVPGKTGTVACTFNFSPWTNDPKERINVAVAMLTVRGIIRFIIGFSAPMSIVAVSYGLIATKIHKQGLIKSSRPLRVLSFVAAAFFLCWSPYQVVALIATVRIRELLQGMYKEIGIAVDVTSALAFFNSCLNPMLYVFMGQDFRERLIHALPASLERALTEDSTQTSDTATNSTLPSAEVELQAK
Kind of assay: FPR1 cyclic adenosine monophosphate (cAMP) assay. The format is cell-based. The note with it: CHO cells overexpressing human FPR1; forskolin 10 μM; inhibition of cAMP production; HTRF; read-out: hFPR1 cAMP2 EC50. An outline of the steps: as §1

The structures appear in SMILES notation.

One may read the EC50 as the concentration giving half of the maximal effect. On to `Cn1c(-c2ccc(OC(F)F)cc2)c(NC(=O)c2ccc(OC(F)F)cc2)c(=O)n1-c1nc(Cl)ccc1C(F)(F)F` [Example 317, N-{2-[6-chloro-3-(trifluoromethyl)pyridin-2-yl]-5-[4-(difluoromethoxy)phenyl]-1-methyl-3-oxo-2,3-dihydro-1H-pyrazol-4-yl}-4-(difluoromethoxy)benzamide], for which the values for the EC50 in assay [1] and in assay [2] were 14 nM and 1800 nM, respectively.

Turning to `COc1cc(F)c(-c2c(NC(=O)c3ccc(OC(F)F)cc3)c(=O)n(-c3nc(S(C)(=O)=O)ccc3C(F)(F)F)n2C)c(F)c1` [Example 318, N-[5-(2,6-difluoro-4-methoxyphenyl)-2-[6-methanesulfonyl-3-(trifluoromethyl)pyridin-2-yl]-1-methyl-3-oxo-2,3-dihydro-1H-pyrazol-4-yl]-4-(difluoromethoxy)benzamide], the EC50 in assay [1] was 7 nM; in assay [2], above 10000 nM.

Regarding `COc1cc(F)c(-c2c(NC(=O)c3ccc(OC(F)F)cc3)c(=O)n(-c3nc(C4CCN(S(C)(=O)=O)CC4)ccc3C(F)(F)F)n2C)c(F)c1` [Example 319], the EC50 in assay [1] was 2 nM; in assay [2], above 10000 nM.

Take `COc1cc(F)c(-c2c(NC(=O)c3ccc(OC(F)F)cc3)c(=O)n(-c3cc(OC4CCOC4)cc(C)n3)n2C)c(F)c1` (stereo not shown) [Example 320, N-(5-(2,6-Difluoro-4-methoxyphenyl)-1-methyl-2-(6-methyl-4-((tetrahydrofuran-3-yl)oxy)pyridin-2-yl)-3-oxo-2,3-dihydro-1H-pyrazol-4-yl)-4-(difluoromethoxy)benzamide]: the EC50 was 2 nM in assay [1] and 990 nM in assay [2].

Consider `COc1cc(F)c(-c2c(NC(=O)c3ccc(OC(F)F)cc3)c(=O)n(-c3cc(OC4CCOC4)cc(C)n3)n2C)c(F)c1` (stereo not shown) [Example 321, N-(5-(2,6-Difluoro-4-methoxyphenyl)-1-methyl-2-(6-methyl-4-((tetrahydrofuran-3-yl)oxy)pyridin-2-yl)-3-oxo-2,3-dihydro-1H-pyrazol-4-yl)-4-(difluoromethoxy)benzamide], for which the EC50 in assay [1] worked out at 4 nM; in assay [2] it was 390 nM.

In the case of `COc1cc(OCC(C)(C)O)nc(-n2c(=O)c(NC(=O)c3ccc(OC(F)F)cc3)c(-c3c(F)cc(OC)cc3F)n2C)c1` [Example 322], the EC50 in assay [1] was 7 nM; in assay [2], above 10000 nM.

As to `COc1cc(F)c(-c2c(NC(=O)c3ccc(OC(F)F)cc3)c(=O)n(-c3cc(C4CCNCC4)cc(C)n3)n2C)c(F)c1` [Example 323, N-(5-(2,6-Difluoro-4-methoxyphenyl)-1-methyl-2-(6-methyl-4-(piperidin-4-yl)pyridin-2-yl)-3-oxo-2,3-dihydro-1H-pyrazol-4-yl)-4-(difluoromethoxy)benzamide], the EC50 in assay [1] was 14 nM; in assay [2], above 10000 nM.

With `COc1cc(F)c(-c2c(NC(=O)c3ccc(OC(F)F)cc3)c(=O)n(-c3cc(C4CCN(C)CC4)cc(C)n3)n2C)c(F)c1` [Example 324, N-(5-(2,6-Difluoro-4-methoxyphenyl)-1-methyl-2-(6-methyl-4-(1-methylpiperidin-4-yl)pyridin-2-yl)-3-oxo-2,3-dihydro-1H-pyrazol-4-yl)-4-(difluoromethoxy)benzamide], the half-maximal effective concentration (EC50) was 5 nM in assay [1] and above 10000 nM in assay [2].

Take `COc1cc(OCC(C)(CO)CO)nc(-n2c(=O)c(NC(=O)c3ccc(OC(F)F)cc3)c(-c3c(F)cc(OC)cc3F)n2C)c1` [Example 325, N-(5-(2,6-Difluoro-4-methoxyphenyl)-2-(6-(3-hydroxy-2-(hydroxymethyl)-2-methylpropoxy)-4-methoxypyridin-2-yl)-1-methyl-3-oxo-2,3-dihydro-1H-pyrazol-4-yl)-4-(difluoromethoxy)benzamide]: the concentration for a half-maximal effect (EC50) is 3 nM in assay [1] and above 10000 nM in assay [2].

As for `COc1cc(O)nc(-n2c(=O)c(NC(=O)c3ccc(OC(F)F)cc3)c(-c3c(F)cc(OC)cc3F)n2C)c1` [Example 326, N-(5-(2,6-Difluoro-4-methoxyphenyl)-2-(6-hydroxy-4-methoxypyridin-2-yl)-1-methyl-3-oxo-2,3-dihydro-1H-pyrazol-4-yl)-4-(difluoromethoxy)benzamide], the EC50 turned out to be 58 nM in assay [1] and 1600 nM in assay [2].

With `COc1cc(F)c(-c2c(NC(=O)c3ccc(OC(F)F)cc3)c(=O)n(-c3cc(OCC4(C)COC4)cc(C)n3)n2C)c(F)c1` [Example 327, N-(5-(2,6-Difluoro-4-methoxyphenyl)-1-methyl-2-(6-methyl-4-((3-methyloxetan-3-yl)methoxy)pyridin-2-yl)-3-oxo-2,3-dihydro-1H-pyrazol-4-yl)-4-(difluoromethoxy)benzamide], the EC50 in assay [1] is 23 nM; in assay [2], 59 nM.

Turning to `COc1cc(F)c(-c2c(NC(=O)c3ccc(OC(F)F)cc3)c(=O)n(-c3cc(C#N)cc(C)n3)n2C)c(F)c1` [Example 328, N-(2-(4-Cyano-6-methylpyridin-2-yl)-5-(2,6-difluoro-4-methoxyphenyl)-1-methyl-3-oxo-2,3-dihydro-1H-pyrazol-4-yl)-4-(difluoromethoxy)benzamide], the values for the EC50 in assay [1] and in assay [2] were 15 nM and 1600 nM, respectively.

With `COc1cc(OCCCO)nc(-n2c(=O)c(NC(=O)c3ccc(OC(F)F)cc3)c(-c3c(F)cc(OC)cc3F)n2C)c1` [Example 329, N-(5-(2,6-Difluoro-4-methoxyphenyl)-2-(6-(3-hydroxypropoxy)-4-methoxypyridin-2-yl)-1-methyl-3-oxo-2,3-dihydro-1H-pyrazol-4-yl)-4-(difluoromethoxy)benzamide], the EC50 is 4 nM in assay [1] and above 10000 nM in assay [2].

As to `COc1cc(F)c(-c2c(NC(=O)c3ccc(OC(F)F)cc3)c(=O)n(-c3cccnc3OC)n2C)c(F)c1` [Example 330, N-(5-(2,6-Difluoro-4-methoxyphenyl)-2-(2-methoxypyridin-3-yl)-1-methyl-3-oxo-2,3-dihydro-1H-pyrazol-4-yl)-4-(difluoromethoxy)benzamide], the concentration giving a half-maximal response (EC50) in assay [1] is 6 nM; in assay [2], above 10000 nM.

Consider `COc1cc(F)c(-c2c(NC(=O)c3ccc(OC(F)F)cc3)c(=O)n(-c3cc(C)cc(OCCO)n3)n2C)c(F)c1` [Example 331, N-(5-(2,6-Difluoro-4-methoxyphenyl)-2-(6-(2-hydroxyethoxy)-4-methylpyridin-2-yl)-1-methyl-3-oxo-2,3-dihydro-1H-pyrazol-4-yl)-4-(difluoromethoxy)benzamide], for which the figures for the concentration for a half-maximal effect (EC50) in assay [1] and in assay [2] were 3 nM and above 10000 nM, respectively.

As to `COc1cc(OCCO)nc(-n2c(=O)c(NC(=O)c3ccc(OC(F)F)cc3)c(-c3c(F)cc(OC)cc3F)n2C)c1` [Example 332, N-(5-(2,6-Difluoro-4-methoxyphenyl)-2-(6-(2-hydroxyethoxy)-4-methoxypyridin-2-yl)-1-methyl-3-oxo-2,3-dihydro-1H-pyrazol-4-yl)-4-(difluoromethoxy)benzamide], the EC50 in assay [1] is 3 nM; in assay [2], above 10000 nM.

As for `COc1cc(F)c(-c2c(NC(=O)c3ccc(OC(F)F)cc3)c(=O)n(-c3cccc(OCCO)n3)n2C)c(F)c1` [Example 333, N-(5-(2,6-Difluoro-4-methoxyphenyl)-2-(6-(2-hydroxyethoxy)pyridin-2-yl)-1-methyl-3-oxo-2,3-dihydro-1H-pyrazol-4-yl)-4-(difluoromethoxy)benzamide], the figures for the EC50 in assay [1] and in assay [2] were 14 nM and 1300 nM, respectively.

For the molecule `COc1cc(OCCS(C)(=O)=O)nc(-n2c(=O)c(NC(=O)c3ccc(OC(F)F)cc3)c(-c3c(F)cc(OC)cc3F)n2C)c1` [Example 335, N-(5-(2,6-Difluoro-4-methoxyphenyl)-2-(4-methoxy-6-(2-(methylsulfonyl)ethoxy)pyridin-2-yl)-1-methyl-3-oxo-2,3-dihydro-1H-pyrazol-4-yl)-4-(difluoromethoxy)benzamide], the EC50 was 3 nM in assay [1] and above 10000 nM in assay [2].

For the molecule `COc1cc(F)c(-c2c(NC(=O)c3ccc(OC(F)F)cc3)c(=O)n(-c3cc(CO)cc(OCCO)n3)n2C)c(F)c1` [Example 336, N-(5-(2,6-Difluoro-4-methoxyphenyl)-2-(6-(2-hydroxyethoxy)-4-(hydroxymethyl)pyridin-2-yl)-1-methyl-3-oxo-2,3-dihydro-1H-pyrazol-4-yl)-4-(difluoromethoxy)benzamide], the EC50 in assay [1] is 24 nM; in assay [2], above 10000 nM.

`COc1cc(OCC2CCS(=O)(=O)CC2)nc(-n2c(=O)c(NC(=O)c3ccc(OC(F)F)cc3)c(-c3c(F)cc(OC)cc3F)n2C)c1` [Example 337, N-(5-(2,6-Difluoro-4-methoxyphenyl)-2-(6-((1,1-dioxidotetrahydro-2H-thiopyran-4-yl)methoxy)-4-methoxypyridin-2-yl)-1-methyl-3-oxo-2,3-dihydro-1H-pyrazol-4-yl)-4-(difluoromethoxy)benzamide]: the EC50 in assay [1] was 15 nM; in assay [2] it was above 10000 nM.
